Results taken from US20180085359A1, “USE OF CHELATORS OF DIVALENT CATIONS TO PROMOTE NERVE REGENERATION” (CHILDREN'S MEDICAL CENTER CORPORATION, priority 2012, published 2018).
“And” between values parts separate entries of the source, which are not always exact repeats. Identical values can stand only once. “Also recorded” adds a separate entry of the source.

Experiments:
[1] = tested on: retinal ganglion cells (RGC); test: RGC survival after optic nerve crush, βIII-tubulin-stained retinal whole mounts; format: in vivo, mouse; conditions: for RGC survival when chelator given only on Day 3: single administration 3 d after ONC
Description: (§1) Studies were performed at Children's Hospital Boston with the approval of the Institutional Animal Care and Use Committee. Experiments used male mice of the strain C57BL/6J (Jackson lab, Bar Harbor, Me.), at 8- to 10-week-old age.
(§2) Adult mice were anesthetized with a combination of ketamine and xylazine given intraperitoneally. A conjunctival incision was made over the dorsal aspect of one eye, which is then gently rotated downward in the orbit. The orbital muscles were slightly separated to expose the optic nerve at its exit from the globe, which were then crushed for 5 seconds with jewelers' forceps (Dumont number 5) near the back of the eye (within 0.5 mm). […] Same volume PBS was injected intravitreally in control group.
(§3) Mice were sacrificed with an overdose of anesthesia 14 d after optic nerve injury and were perfused with saline and 4% paraformaldehyde (PFA). […]. Optic nerves and eyes were dissected and postfixed in PFA. Nerves were impregnated with 30% sucrose, embedded in OCT Tissue Tek Medium (Sakura Finetek), frozen, cut in the longitudinal plane at 14 μm, and mounted on coated slides. Regenerating axons were visualized by staining with a sheep antibody to GAP-43 followed by a fluorescently labeled secondary antibody.
Images of eight preselected areas, 2 mm from the optic disc were captured under fluorescent illumination (400×; E800; Nikon). βIII-Tubulin-positive cells were counted using NIH ImageJ software (Wayne Rasband, National Institutes of Health, Bethesda, Md.). Cell densities were averaged across all eight areas.

[2] = tested on: RGC axons in the optic nerve; test: Optic nerve axon regeneration after optic nerve crush, GAP-43-positive axons distal to the crush site; format: in vivo, mouse; conditions: for effect on axon regeneration: intraocular injection, days 0 and 4 after ONC; for effect on axon regeneration / most effective concentration for axon regeneration: evaluated at 2 weeks; for maximally effective concentration for axon regeneration (unit not given): FIG. 4 / FIG. 7, 2 weeks after optic nerve injury, multiple injections; for added effect of pre-treatment (additional injection one day before ONC) on axon regeneration: compared with 2 post-injury injections; for most effective concentration for axon regeneration: intraocular injection immediately after optic nerve crush and 4 days later; for axon regeneration in combination with pten gene deletion: pten deleted in RGCs by AAV2-Cre, 2 weeks
Description: as §1, §2, §3
Axon growth was quantified by counting the number of GAP-43-positive axons extending 0.5, 1, 1.5 and 2 mm from the end of the crush site in at least eight sections per case. The cross-sectional width of the nerve was measured at the point at which the counts were taken and was used to calculate the number of axons per millimeter of nerve width. The number of axons per millimeter was then averaged over the number of sections. Σad, the total number of axons extending distance din a nerve having a radius of r, was estimated by summing over all sections having a thickness t (14 μm):
Σad=πr^2×[average axons/mm]/t

Caspase-3 = Caspase-3 immunostaining of retinal cross-sections 5 days after optic nerve crush; format: in vivo, mouse
Excerpt: (§4) FIG. 6A-FIG. 6C show results from experiments that indicate Chelation of free Zn^2+ suppresses molecular changes that lead to RGC apoptosis. A) Cross-sections through the normal retina or 5 days after optic nerve crush, with or without treatment with the Zn^2+ chelator TPEN. Sections were immunostained to detect the anti-apoptotic protein Bcl-xL or the pro-apoptotic enzymes Caspase-3 or -8. B) C) Quantitation of cellular changes (avg. number of stained cells per section). Optic nerve injury causes a marked elevation of Caspases-3 and -8. […] BclxL levels have not been quantified yet, but appear to decrease with optic nerve injury and to be partially preserved by TPEN treatment. gcl: ganglion cell layer; ipl, inner plexiform layer; ink inner nuclear layer.
(§5) Retinal cross-sections from normal mice or 5 days after optic nerve crush, with or without TPEN treatment. Sections were immunostained for the anti-apoptotic protein Bcl-xL or the pro-apoptotic enzymes Caspase-3 or -8. Optic nerve injury causes a marked elevation of Caspases-3 and -8 and a decline in Bcl-xL. TPEN diminishes the expression of Caspases-3 and -8 and attenuates the decline in Bcl-xL gcl: ganglion cell layer; ipl, inner plexiform layer; inl, inner nuclear layer.

Bcl-xL = Bcl-xL immunostaining of retinal cross-sections 5 days after optic nerve crush; format: in vivo, mouse
Excerpt: as §4, §5

[3] = tested on: free Zn^2+ in the inner plexiform layer of the retina; test: Free Zn2+ in the retina after optic nerve injury by autometallography (AMG); format: in vivo, mouse; conditions: chelator injected intraocularly
Description: A) and B) Mice underwent unilateral optic nerve injury and received i.p. injections of sodium selenite immediately afterwards. Levels of free Zn^2+ increase within 6 hours. C) and D) TPEN (100 μM injections starting 1 day before nerve injury) suppresses the increase in free Zn^2+. The temporal resolution of this method is limited by the time delay for TPEN to reach the retina.
We investigated the hypothesis that the liberation of free Zn2+ plays a role in RGC death after axonal injury.
To investigate the possible relationship between ionic Zn^2+ and nerve regeneration, we used autometallography (AMG) to examine changes in the retina, injecting Na2SeO3 i.p. at various times after ONC and euthanizing mice 6 hr later. We detected a dramatic increase in labeling in the IPL, the layer of the retina that contains synaptic inputs from retinal interneurons onto RGC dendrites, especially in 2 sublayers (FIG. 11B). IPL labeling in-creased up to 24 hr but declined by 3 days, at which time labeling appeared in RGCs themselves. […] This interpretation is supported by studies using a membrane-permeable fluorescent Zn^2+ sensor, Zinpyr1, which has a strong preference for Zn^2+ over Ca^2+ (41). […] As with AMG, Zinpyr1 labeling was elevated in RGCs but not IPL at 3 days (FIG. 11K). The Zn^2+ transporter ZnT3 is also localized in the IPL (FIG. 11L).

Adult rat RGCs = test: Axon outgrowth in cultured adult RGCs in defined media; format: cell-based; conditions: ZX1 10 μM; with or without forskolin, mannose, oncomodulin
[4] = Hydrolytic stability of the sulfonate ester at pH 7; format: physicochemical
[5] = tested on: porcine liver esterase (PLE); test: Enzymatic cleavage by esterase followed by UV/vis; format: in vitro ADME; conditions: 25% MeOH/PBS at 37° C., 0.2 unit/ml porcine liver esterase
Description: A) change of UV/vis spectrum of 3 in 25% MeOH/PBS upon addition of esterase at 37° C. The final spectrum matched the spectrum of ZX1 (B). A) Insert: the decrease of absorbance at 340 nm.
The AcOTFMB sulfonate ester, 1, was synthesized with 88% yield by esterifying 2-nitrobenzenesulfonyl chloride with the corresponding alcohol in the presence of DABCO as the base. Reduction of the nitro functionality with hydrogen afforded the aniline, 2, with 99% yield. The dipicolylamine (DPA) zinc-binding unit can be installed to the aniline via reduction amination to afford the target molecule, 3, in 10% yield (Scheme 1). […] In 25% MeOH/PBS at 37° C., upon introduction of 0.2 unit/ml porcine liver esterase (PLE), The UV/vis spectrum gradually changes with an isosbestic point of 317 nm, to produce a peak at 307 nm (FIG. 10).

[6] = injected into the eye just after ONC and again after 4 days

Question: Which “effect on RGC survival 2 weeks after ONC” value [1, 6] does the source give for `O=C(O)CN(CCN(CC(=O)O)CC(=O)O)CC(=O)O.[Ca]` [CaEDTA] here?
Answer: doubled

Question: And the “effect on RGC survival 2 weeks after ONC” value ([1]; injected into the eye just after ONC and again after 4 days, listed as Ca-EDTA)?
Answer: promotes cell survival

Question: And the “effect on axon regeneration” value [2]?
Answer: led to axon outgrowth

Question: For `CC[N+](CC)(CC)CC` [TEA, tetraethylammonium], which “RGC survival after optic nerve injury with K+ channel blockers” value (“RGC survival after optic nerve injury” for short) ([1]; FIG. 16) is on record?
Answer: blocks RGC death after ONC to the same extent as TPEN; also recorded: strong effect

Question: What about the “concentration affording strong protection of RGCs” value ([1]; mouse, in vivo) of the same compound?
Answer: < 100 µM and 100 µM

Question: With `c1ccc(CN(CCN(Cc2ccccn2)Cc2ccccn2)Cc2ccccn2)nc1` [TPEN, N,N,N′,N′-tetrakis(2-pyridylmethyl)ethylenediamine] as the compound, how does the “injury-induced increase in Caspase-3” value (Caspase-3) read?
Answer: suppressed; also recorded: diminishes the number of Caspase-3 positive cells

Question: What about the “injury-induced decrease in Bcl-xL” value (Bcl-xL) of the same compound?
Answer: suppressed; also recorded: partially blocks Bcl-xL loss after ONC

Question: What about the “added effect of pre-treatment (additional injection one day before ONC) on RGC survival” value ([1]; compared with injections on day 0 and day 4 only) of the same compound?
Answer: not augmented; also recorded: did not enhance RGC survival

Question: What about the “effect on RGC survival 2 weeks after ONC” value [1, 6] of the same compound?
Answer: protected RGCs

Question: And the “most effective concentration for RGC survival” value ([1]; intraocular, day 0 and day 4 after optic nerve crush, survival at 2 weeks)?
Answer: 100 µM

Question: And the “RGC survival in combination with pten gene deletion” value ([1]; pten deleted in RGCs by AAV2-Cre, 2 weeks)?
Answer: no additional effect

Question: And the “RGC survival when chelator given only on Day 3” value [1]?
Answer: fully protective

Question: And the “long-lasting RGC survival” value ([1]; up to 12 wk after ONC)?
Answer: enduring protection

Question: What about the “maximally effective concentration for axon regeneration (unit not given)” value ([2]; in µM) of the same compound?
Answer: 100-500

Question: And the “added effect of pre-treatment (additional injection one day before ONC) on axon regeneration” value [2]?
Answer: markedly increased the number of regenerating axons; also recorded: augmented the amount of regeneration

Question: And the “most effective concentration for axon regeneration” value [2]?
Answer: 100 µM

Question: And the “effect on axon regeneration” value [2]?
Answer: led to axon outgrowth

Question: What about the “axon regeneration in combination with pten gene deletion” value [2] of the same compound?
Answer: much greater effects on regeneration than either one alone; also recorded: double

Question: What about the “axon regeneration when injected on D3” value ([2]; single administration 3 d after ONC) of the same compound?
Answer: did not promote regeneration

Question: What about the “free Zn2+ level / AMG labeling in the retina after optic nerve injury” value [3] of the same compound?
Answer: diminishes Zn2+ levels; also recorded: blocked injury-induced labeling in the IPL

Question: For `O=S(=O)(O)c1ccccc1NCCN(Cc1ccccn1)Cc1ccccn1` [ZX1], which “axon outgrowth of cultured RGCs” value (Adult rat RGCs) is on record?
Answer: no effect

Question: And the “dose dependence of RGC survival” value ([1]; ZX1 between 10 μM and 10 mM)?
Answer: roughly equally effective in promoting cell survival; also recorded: equally protective against RGC death at all concentrations from 10 μM up

Question: And the “effect on RGC survival 2 weeks after ONC” value [1, 6]?
Answer: just as effective as TPEN; also recorded: doubled

Question: What about the “RGC survival when chelator given only on Day 3” value [1] of the same compound?
Answer: less effective

Question: What about the “GAP-43-positive axons at 0.5 mm from crush site” value ([2]; 2 weeks after crush, ZX1 10 μM˜10 mM injection, crush alone 7.05±2.49 axons) of the same compound?
Answer: up to 164 axons

Question: And the maximally effective concentration for axon regeneration (unit not given) [2]?
Answer: 30 µM

Question: And the “added effect of pre-treatment (additional injection one day before ONC) on axon regeneration” value [2]?
Answer: augmented the amount of regeneration

Question: And the “most effective concentration for axon regeneration” value [2]?
Answer: 100 µM

Question: What about the “effect on axon regeneration” value [2] of the same compound?
Answer: induces extensive regeneration; also recorded: similarly effective in inducing regeneration

Question: What about the “axon regeneration when added to Zymosan + cAMP alone” value ([2]; long-term, FIG. 18) of the same compound?
Answer: increases the effect of Zymosan+ cAMP alone

Question: And the “axon regeneration when added to Zymosan, elevation of cAMP and pten gene deletion” value ([2]; long-term, examined 12 weeks after chelator)?
Answer: nearly doubles the amount of regeneration seen at short distances from the injury site

Question: And the “axon regeneration in combination with pten gene deletion” value [2]?
Answer: double

Question: What about the “free Zn2+ level / AMG labeling in the retina after optic nerve injury” value [3] of the same compound?
Answer: blocked injury-induced labeling in the IPL

Question: Which results are given for `O=C(O)CN(CCN(CC(=O)O)CC(=O)O)CC(=O)O.[Zn]` [ZnEDTA]?
Answer: effect on RGC survival 2 weeks after ONC ([1]; mouse, in vivo): not; effect on axon regeneration [2]: not

Question: Which results are given for `CC(=O)Oc1ccc(C(OS(=O)(=O)c2ccccc2NCCN(Cc2ccccn2)Cc2ccccn2)C(F)(F)F)cc1` (stereo not shown) [compound 3, 4-(1-(((2-((2-(bis(pyridin-2-ylmethyl)amino)ethyl)amino)phenyl)sulfonyl)oxy)-2,2,2-trifluoroethyl)phenyl acetate]?
Answer: stability toward hydrolysis [4]: stable at pH 7 for several days without being hydrolyzed; susceptibility to esterase cleavage [5]: susceptible to enzymatic cleavage to afford ZX1

Question: Which “RGC survival after optic nerve injury” value ([1]; FIG. 16) does the source give for “Agitoxin-2: blocker of Shaker family K+ channels Kv1.1 and 1.3” here?
Answer: only a small effect on RGC survival

Question: What about the “RGC survival in combination with TPEN” value ([1]; FIG. 16) of the same compound?
Answer: does not augment the effect of TPEN

Question: And the “RGC survival after optic nerve injury” value ([1]; FIG. 16, listed as AgTx2)?
Answer: slightly improves RGC survival
